Experimental data published in the supplement of paper PMC2824726.
Where “and” joins values, the source holds several entries; their conditions need not be identical. Identical values can stand only once.

What follows are sequences tested on MDA-MB-231 (assay: shRNA barcode abundance ratio t_end/t_zero (depletion over 4 weeks of proliferation) (log2 ratio); higher = less depletion (weaker anti-proliferative effect of the shRNA)). Conditions: time after t zero 28 days.
Experimental: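 Pooled lentiviral negative-selection screen of 305 pGIPZ shRNAs (Open Biosystems V2LHS clones; the 21-nt half-hairpin sense stem is embedded in a mir-30 scaffold) in MDA-MB-231 breast carcinoma cells, infected at MOI 0.3 with 0.5 ug/ml puromycin selection. Barcode abundance was read on barcode tiling microarrays (six 25-nt probes per 60-nt barcode) at t_zero (5 days post-infection) and t_end (33 days; 28 days of culture after t_zero). Values are median-normalised t_end/t_zero signal ratios, averaged over the tiling probes that passed a 10-fold background filter, from three biological replicates.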

| Sequence | shRNA barcode abundance ratio t end/t zero (log2) |
| --- | --- |
| CCTGCAAACCTTATCCTCTAT (targeted gene: MAPK8IP2) | 0.442 |
| CCTGCCCATTAGAGAAGTATT (targeted gene: VHL) | -0.221 |
| CCTGGCTCCTCTACTGTTTAA (targeted gene: BIRC5) | -0.954 |
| CCTGGGCATTCTTGTTTCAAT (targeted gene: IL1A) | -0.328 |
| CCTGTCAATATTGATGACTTG (targeted gene: BRAF) | 0.319 |
| CCTGTTATCAATCTGCTAAAT (targeted gene: FOXO1) | 0.0156 |
| CCTGTTGGTGTCTTTATTATT (targeted gene: CDH1) | 0.164 |
| CCTTAAATCCTCATTGCAAAT (targeted gene: USP9X) | -0.782 |
| CCTTAGCAATGTCTTAGGAAA (targeted gene: BIRC5) | -2.27 |
| CCTTCCAGAGTTATGGAAATT (targeted gene: BCL2A1) | 0.456 |
| CCTTCGCCAGATCACTGTTAA (targeted gene: PRDX2) | 0.234 |
| CCTTGCTGTTGTGAAATCTAT (targeted gene: ANXA5) | -0.252 |
| CCTTGGAAAGGATGAACAAAT (targeted gene: TOPORS) | 0.154 |
| CCTTTCTCCAAACCCTCTTAA (targeted gene: BIRC2) | 0.28 |
| CCTTTGAAAGTGGGTGGAATT (targeted gene: TNFAIP3) | 0.0769 |
| CCTTTGAACTTGATTGCCTAT (targeted gene: SFRP1) | -0.127 |
| CGAACTCCTCTTCTCAGTTAA (targeted gene: IGF1R) | 0.302 |
| CGACTCTATCAGGGTATAAAT (targeted gene: MSH2) | 0.0312 |
| CGACTTAGACTTGACCTATAT (targeted gene: PTEN) | -0.304 |
| CGAGACATTCGCATCAAATAT (targeted gene: NRG2) | 0.219 |
| CGAGAGAGTTTCCCTACGTAT (targeted gene: CDH1) | 0.249 |
| CGAGCCCTGGACACCAACTAT (targeted gene: TGFB1) | 0.183 |
| CGAGGCAACTTGAACTCAGAA (targeted gene: IER3) | 0.272 |
| CGAGTTTGTGGACTCCTTTAA (targeted gene: BAD) | -0.185 |
| CGCAAGAATCTGTTCCTAGTG (targeted gene: FAIM3) | -0.255 |
| CGCAGATAGGAGTAGTCTTTA (targeted gene: NFIA) | 0.432 |

| Sequence | shRNA barcode abundance ratio t end/t zero (log2) |
| --- | --- |
| CGCCAGCACCGGAGGAAGAAA (targeted gene: CDKN2A) | -0.0357 |
| CGCCTTTCCTTAAGGAACAAA (targeted gene: NAIP) | 0.0933 |
| CGCTACTTCCTCCTCAAGAAT (targeted gene: AKT1) | 0.372 |
| CGGACCTTAGTGAATATAAAT (targeted gene: OPA1) | -0.0398 |
| CGGAGAGTTATCCTGATAAAT (targeted gene: SFRP1) | -0.114 |
| CGGATTAGGGCATTTGAGAAA (targeted gene: IL7) | 0.319 |
| CGGCTTTATGATGCTTATGAA (targeted gene: ANXA5) | 0.161 |
| CGGGTTTCTCCGGCGTCATTA (targeted gene: PIM1) | 0.0461 and 0.0898 |
| CGGTATTAAGTTGTAATTTAA (targeted gene: PROK2) | 0.137 |
| CGGTTTGCTGAGGAGAAAGAA (targeted gene: AVEN) | 0.241 |
| CGTAAGATGATGGATTTGATT (targeted gene: BIRC5) | 0.0401 |
| CGTCGTAATCACCACACTGAA (targeted gene: CDH1) | 0.11 |
| CGTGATTCTAAGAATCTCAAA (targeted gene: IL1A) | 0.666 |
| CGTTATTAACTTGTTATTTAG (targeted gene: API5) | 0.468 |
| GAACTAGATCTGTTGCTTAAT (targeted gene: AVEN) | 0.231 |
| GAGGATTATGGCTAACAAGAA (targeted gene: MCL1) | 0.27 |
| GATCCTAAGATGTGTTCTTAT (targeted gene: CYP1B1) | 0.664 |
| GATGATAGTATTGAAGCAGAT (targeted gene: BNIP2) | 0.366 |
| GCAAAGAATCTAGATGCAATA (targeted gene: IL6) | 0.508 and 0.569 |
| GCAAAGATCCTGATATCTTAT (targeted gene: RASA1) | 0.278 |
| GCAAATGGAATCTTTATGAAA (targeted gene: MALT1) | 0.375 |
| GCAAATTTCATGACCAGTAAA (targeted gene: TDGF1) | -0.234 |
| GCAAGCAGTCTTGTGAGTTAA (targeted gene: RASA1) | -0.169 and -0.167 |
| GCAATTGAGAGCATTCTTAAA (targeted gene: IL3) | -0.0688 |
| GCACAACCAGTTCTGCAATAT (targeted gene: TAX1BP1) | 0.565 |
| GCACAAGCAGCTGATCCGATT (targeted gene: IL4) | -0.0177 |

| Sequence | shRNA barcode abundance ratio t end/t zero (log2) |
| --- | --- |
| GCACAGCATCAAACCAAGTTA (targeted gene: MLH1) | 0.165 |
| GCACAGGCTTTATCGAGAATA (targeted gene: IGFBP3) | 0.0415 |
| GCACATCCTTGCTAATTTCAA (targeted gene: TPT1) | 0.0219 |
| GCACCTAGTGTCCAGATTCAT (targeted gene: HDAC3) | 0.129 |
| GCACCTTGTTGTCATGAACTT (targeted gene: DAD1) | 0.0822 and 0.0853 |
| GCACTTGCCTTTAAACTATGT (targeted gene: NFIA) | 0.384 |
| GCAGAAGCTCTCCAAATTGAA (targeted gene: APAF1) | 0.521 |
| GCAGATGAAGATCATCGAAAT (targeted gene: BRAF) | 0.116 |
| GCAGATTCAAGTCAATCTGAA (targeted gene: NFIA) | 0.355 |
| GCAGATTCGTTCAGAGTCTAA (targeted gene: BIRC3) | 0.154 |
| GCAGCTTCAGGTTTACTCAAA (targeted gene: CD28) | 0.127 |
| GCAGCTTCCTTGAACCATTAT (targeted gene: SPHK1) | -0.397 |
| GCAGGTATTTGACATATTAAA (targeted gene: NFKB1) | 0.38 |
| GCAGTAGCCTTGATAGATTAT (targeted gene: BIRC6) | -0.00928 |
| GCAGTATAGAGCGTGCAGATA (targeted gene: PTEN) | -0.0774 |
| GCATCAGATGATTTGTCATTA (targeted gene: BIRC2) | 0.0467 and 0.133 |
| GCATCATGCCTTCTGAATAAA (targeted gene: CLN3) | 0.486 |
| GCATCTTCTTCGGTGAAATAT (targeted gene: BNIP2) | -0.0165 |
| GCATGTAATAGAGTGTGCTAA (targeted gene: MSH2) | 1.01 |
| GCATGTTATGTTGTTCTTATT (targeted gene: XIAP) | 0.25 |
| GCCAAGTTCTTAGTTGCTGTA (targeted gene: CXCR4) | -1.59 |
| GCCAATATTGTGTTTGGATAT (targeted gene: MALT1) | 0.354 |
| GCCACATGTCTTTGCTTGATA (targeted gene: NAIP) | 0.453 |
| GCCCTGATTGTGTATATTCAT (targeted gene: BCL2) | 0.006 |
| GCCCTGTACTTTAACCCAATT (targeted gene: BFAR) | 0.0378 |
